Structures can show the parent of a compound that is named as a salt.

Usually IC90 stands for the concentration needed for an effect of 90%.

The first assay deals with Acinetobacter baumannii ATCC17961. The experiment in a line: Antimicrobial susceptibility testing: 90% growth inhibitory concentration (IC90) determination in Iso-Sensitest broth, OD600 growth. As to conditions: Acinetobacter baumannii, ATCC17961, 16 h, read-out: A. baumannii ATCC 17961 IC90 (uM), strain ATCC 17961, OD600 growth over 16 h. Type of assay: cell-based. Summed up: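 Growth inhibition is calculated during the logarithmic phase from OD600 readings taken every 20 minutes across 16 h at 35±2° C. Bacteria at ~5×10^(5) CFU/ml face twofold dilution series (e.g. 50 to 0.097 μM final).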
For `CCc1cc(Nc2nccn3c(-c4cn(CC#N)nc4C(F)(F)F)cnc23)ccc1C(=O)NCC(=O)NC1C2CNCC21` (centres unmarked) [Example 511, N-[2-(3-azabicyclo[3.1.0]hexan-6-ylamino)-2-oxo-ethyl]-4-[[3-[1-(cyanomethyl)-3-(trifluoromethyl)pyrazol-4-yl]imidazo[1,2-a]pyrazin-8-yl]amino]-2-ethyl-benzamide formate], the concentration for an effect of 90% (IC90) turned out to be 0.295 µM.
Still for that read-out and setting: to `CCc1cc(Nc2nccn3c(-c4cn(CC#N)nc4C(F)(F)F)cnc23)ccc1C(=O)N[C@H](C)C(=O)N1CCC(N)CC1` [Example 697, N-[(1R)-2-(4-amino-1-piperidyl)-1-methyl-2-oxo-ethyl]-4-[[3-[1-(cyanomethyl)-3-(trifluoromethyl)pyrazol-4-yl]imidazo[1,2-a]pyrazin-8-yl]amino]-2-ethyl-benzamide formate] belongs 0.371 µM; to `Cc1cc(Nc2nccn3c(-c4cn(CC#N)nc4C(F)(F)F)cnc23)ccc1C(=O)N1CCN(C(=O)[C@@H]2CCNC[C@H]2O)CC1` [Example 380, formic acid; 2-[4-[8-[4-[4-[(3S,4R)-3-hydroxypiperidine-4-carbonyl]piperazine-1-carbonyl]-3-methylanilino]imidazo[1,2-a]pyrazin-3-yl]-3-(trifluoromethyl)pyrazol-1-yl]acetonitrile], 0.623 µM; to `CCOC(=O)Cn1cc(-c2cnc3c(Nc4ccc(C(=O)NCCOCCN)c(CC)c4)nccn23)c(C(F)(F)F)n1` [Example 310, ethyl 2-[4-[8-[4-[2-(2-aminoethoxy)ethylcarbamoyl]-3-ethylanilino]imidazo [1,2-a]pyrazin-3-yl]-3-(trifluoromethyl)pyrazol-1-yl]acetate formate], 0.719 µM.
For `Cc1cc(Nc2nccn3c(-c4cn(CC#N)nc4C(F)(F)F)cnc23)ccc1C(=O)N[C@H](C)C(=O)N1CC[C@@H](N)C1` [Example 761, N-[(1R)-2-[(3R)-3-aminopyrrolidin-1-yl]-1-methyl-2-oxo-ethyl]-4-[[3-[1-(cyanomethyl)-3-(trifluoromethyl)pyrazol-4-yl]imidazo[1,2-a]pyrazin-8-yl]amino]-2-methyl-b enzamide formate], the IC90 was 0.721 µM.

Staying with this assay, now noted: Acinetobacter baumannii, ATCC17961, 16 h, strain ATCC 17961, OD600 growth over 16 h, read-out: A. baumannii ATCC 17961 IC90.
As for `CCc1cc(Nc2nccn3c(-c4c[nH]nc4C(F)(F)F)cnc23)ccc1C(=O)NCCOCCN1CCOCC1` [Example 772, 2-ethyl-N-(2-(2-morpholinoethoxy)ethyl)-4-((3-(3-(trifluoromethyl)-1H-pyrazol-4-yl)imidazo[1,2-a]pyrazin-8-yl)amino)benzamide], the IC90 turned out to be 0.968 µM.
With `CCc1cc(Nc2nccn3c(-c4cn(CC(F)F)nc4C(F)(F)F)cnc23)ccc1C(=O)NCCCCCN(CC(=O)O)CC1CNC1` [Example 829, 2-[azetidin-3-ylmethyl-[S-[[4-[[3-[1-(2,2-difluoroethyl)-3-(trifluoromethyl)pyrazol-4-yl]imidazo[1,2-α]pyrazin-8-yl]amino]-2-ethyl-benzoyl]amino]pentyl]amino]acetic acid; formic acid], the concentration for an effect of 90% (IC90) was 0.72 µM.
In the case of `CCc1cc(Nc2nccn3c(-c4cn(CC#N)nc4C(F)(F)F)cnc23)ccc1C(=O)NCCNC(=O)[C@H]1CC[C@H](N)C1` [Example 491, N-(2-((1S,3S)-3-aminocyclopentane-1-carboxamido)ethyl)-4-((3-(1-(cyanomethyl)-3-(trifluoromethyl)-1H-pyrazol-4-yl)imidazo[1,2-a]pyrazin-8-yl)amino)-2-ethylbenzamide formate], the 90% effect concentration (IC90) turned out to be 0.195 µM.
Turning to `CC1(O)CN(C(=O)c2ccc(Nc3nccn4c(-c5cn(CC#N)nc5C(F)(F)F)cnc34)cc2Cl)C1` [Example 242, 2-[4-[8-[3-chloro-4-(3-hydroxy-3-methylazetidine-1-carbonyl)anilino]imidazo[1,2-a]pyrazin-3-yl]-3-(trifluoromethyl)pyrazol-1-yl]acetonitrile], the concentration for an effect of 90% (IC90) was 0.33 µM.
On to `CCc1cc(Nc2nccn3c(-c4c[nH]nc4C(F)(F)F)cnc23)ccc1C(=O)NCCCNC(=O)N1CC[C@@H](N)C1` [Example 631, (R)-3-amino-N-(3-(2-ethyl-4-((3-(3-(trifluoromethyl)-1H-pyrazol-4-yl)imidazo[1,2-a]pyrazin-8-yl)amino)benzamido)propyl) pyrrolidine-1-carboxamide], for which the 90% effect concentration (IC90) was 0.209 µM.
On to `CCc1cc(Nc2nccn3c(-c4cn(CC(F)F)nc4C(F)F)cnc23)ccc1C(=O)N[C@H]1C[C@@H](NC(=O)[C@@H]2C[C@@H](O)CN2)C1` [Example 552, (2S,4R)-N-((1s,3R)-3-(4-((3-(1-(2,2-difluoroethyl)-3-(difluoromethyl)-1H-pyrazol-4-yl)imidazo[1,2-a]pyrazin-8-yl)amino)-2-ethylbenzamido)cyclobutyl)-4-hydroxypyrrolidine-2-carboxamide], for which the IC90 is 0.489 µM.
For `CCc1cc(Nc2nccn3c(-c4cn(CC#N)nc4C(F)(F)F)cnc23)ccc1C(=O)NCCCNC(=O)[C@@H]1C[C@@H](O)CN1` [Example 754, (2S,4R)-N-(3-(4-((3-(1-(cyanomethyl)-3-(trifluoromethyl)-1H-pyrazol-4-yl)imidazo[1,2-a]pyrazin-8-yl)amino)-2-ethylbenzamido)propyl)-4-hydroxypyrrolidine-2-carboxamide], the IC90 was found to be 0.671 µM.
Consider `CCc1cc(Nc2nccn3c(-c4c[nH]nc4C(F)(F)F)cnc23)ccc1C(=O)NCCCNC(=O)[C@H](C)NC(=O)C(F)(F)F` [Example 759, (S)-2-ethyl-N-(3-(2-(2,2,2-trifluoroacetamido)propanamido)propyl)-4-((3-(3-(trifluoromethyl)-1H-pyrazol-4-yl)imidazo[1,2-a]pyrazin-8-yl)amino) benzamide], for which the 90% effect concentration (IC90) came to 0.693 µM.
Take `CCOCCCNC(=O)c1ccc(Nc2nccn3c(-c4cn(CC#N)nc4C(F)(F)F)cnc23)cc1CC` [Example 205, 4-[[3-[1-(cyanomethyl)-3-(trifluoromethyl)pyrazol-4-yl]imidazo[1,2-a]pyrazin-8-yl]amino]-N-(3-ethoxypropyl)-2-ethylbenzamide]: the IC90 was determined as 0.256 µM.
Turning to `CCc1cc(Nc2nccn3c(-c4cn(CC#N)nc4C#N)cnc23)ccc1C(=O)NCCOCCN` [Example 830, N-(2-(2-aminoethoxy)ethyl)-4-((3-(3-cyano-1-(cyanomethyl)-1H-pyrazol-4-yl)imidazo[1,2-α]pyrazin-8-yl)amino)-2-ethyl-benzamide], the IC90 worked out at 0.58 µM.
On to `CCc1cc(Nc2nccn3c(-c4c[nH]nc4C(F)(F)F)cnc23)ccc1C(=O)NCCC1(N)CC1` [Example 263, N-[2-(1-aminocyclopropyl)ethyl]-2-ethyl-4-[[3-[3-(trifluoromethyl)-1H-pyrazol-4-yl]imidazo[1,2-a]pyrazin-8-yl]amino]benzamide], for which the IC90 worked out at 2.43 µM.
As for `Cc1cc(Nc2nccn3c(-c4c[nH]nc4C(F)(F)F)cnc23)ccc1C(=O)N1CCN(C(=O)[C@@H]2CNCC[C@@H]2O)CC1` (racemic) [Example 468, [2-methyl-4-[[3-[3-(trifluoromethyl)-1H-pyrazol-4-yl]imidazo[1,2-a]pyrazin-8-yl]amino]phenyl]-[4-[rac-(3R,4S)-4-hydroxypiperidine-3-carbonyl]piperazin-1-yl]methanone hydrochloride], the IC90 turned out to be 1.43 µM.
Still for that read-out and setting: to `Cc1cc(Nc2nccn3c(-c4cn(CC(F)F)nc4C(F)(F)F)cnc23)cc(F)c1C(=O)N1CCN(C(=O)[C@H]2[C@@H]3CNC[C@@H]32)CC1` [Example 692, (4-((1R,5S,6r)-3-azabicyclo[3.1.0]hexane-6-carbonyl)piperazin-1-yl)(4-((3-(1-(2,2-difluoroethyl)-3-(trifluoromethyl)-1H-pyrazol-4-yl)imidazo[1,2-a]pyrazin-8-yl)amino)-2-fluoro-6-methylphenyl)methanone] belongs 0.356 µM.
In the case of `N#CCn1cc(-c2cnc3c(Nc4ccc(C(=O)N5CC6(C5)CN(C(=O)[C@@H]5CCCN5)C6)c(Cl)c4)nccn23)c(C(F)(F)F)n1` [Example 636, (S)-2-(4-(8-((3-chloro-4-(6-prolyl-2,6-diazaspiro[3.3]heptane-2-carbonyl)phenyl)amino)imidazo[1,2-a]pyrazin-3-yl)-3-(trifluoromethyl)-1H-pyrazol-1-yl)acetonitrile], the concentration for an effect of 90% (IC90) was determined as 0.222 µM.
For `O=C(CNCCNC(=O)c1ccc(Nc2nccn3c(-c4cn(CC(F)F)nc4C(F)(F)F)cnc23)cc1Cl)N[C@@H]1CCNC1` [Example 823, (R)-2-chloro-4-(3-(1-(2,2-difluoroethyl)-3-(trifluoromethyl)-1H-pyrazol-4-yl)imidazo[1,2-a]pyrazin-8-yl)amino)-N-(2-((2-oxo-2-(pyrrolidin-3-ylamino)ethyl)amino)ethyl) benzamide formate], the 90% effect concentration (IC90) is 0.18 µM.
Take `NC1CCC(NC(=O)c2ccc(Nc3nccn4c(-c5c[nH]nc5C(F)(F)F)cnc34)cc2Cl)CC1` (centres unmarked) [Example 385, N-(4-aminocyclohexyl)-2-chloro-4-[[3-[3-(trifluoromethyl)-1H-pyrazol-4-yl]imidazo[1,2-a]pyrazin-8-yl]amino]benzamide]: the 90% effect concentration (IC90) came to 0.969 µM.

Still in this assay, the particulars now being: strain ATCC 17961, OD600 growth over 16 h, read-out: A. baumannii ATCC 17961 IC90.
`COCCNC(=O)c1ccc(Nc2nccn3c(-c4cn(CC#N)nc4C(F)(F)F)cnc23)cc1Cl` [Example 239, 2-chloro-4-[[3-[1-(cyanomethyl)-3-(trifluoromethyl)pyrazol-4-yl]imidazo[1,2-a]pyrazin-8-yl]amino]-N-(2-methoxyethyl) benzamide]: the 90% effect concentration (IC90) came to 0.211 µM.
The same measure, in the same setting: as for `Cc1cc(Nc2nccn3c(-c4c[nH]nc4C(F)(F)F)cnc23)ccc1C(=O)N1CCN(C(=O)N[C@H]2CNC[C@@H]2O)CC1` [Example 458, formic acid, N-[(3S,4S)-4-hydroxyppyrrolidin-3-yl]-4-[2-methyl-4-[[3-[3-(trifluoromethyl)-1H-pyrazol-4-yl]imidazo[1,2-a]pyrazin-8-yl]amino]benzoyl]piperazine-1-carboxamide], the figure is 0.551 µM.

The values above are taken from patent US20230203043A1, “NOVEL IMIDAZOPYRAZINE DERIVATIVES” (Hoffmann-La Roche Inc., priority 2020, published 2023).
